A word on the inhibition: it is the share of the control response that was lost under treatment. By EC50 is commonly meant the concentration at which the effect is half-maximal.

This experiment deals with T1, human indoleamine 2,3-dioxygenase 1 (hIDO1) (Homo sapiens, UniProt P14902).
T1 construct: up-regulate the expression of endogenous IDO1 under the induction of human IFN-γ; endogenous in cells; host or cells: HeLa cells stimulated with human IFN-γ
Nature of the experiment: Inhibitory activity test at cellular level: IFN-γ-induced HeLa cells, kynurenine colour reaction. It is filed as cell-based. Particulars: 48 hours; for inhibition at 0.1 µM: 50 ng/ml human IFN-γ, 200 μM L-tryptophan, each test compound 100 nM, read-out: hIDO1-cell base inhibition rate (%); for EC50: human IFN-γ, read-out: hIDO1-cell base EC50. An excerpt:
The subject of this assay was to comprehensively evaluate different compounds on their enzymatic inhibitory activity in vitro and on cell models against human indoleamine 2,3-dioxygenase 1 (hIDO1).
In the present application, the inventors used Hela cells expressing IDO1 induced by IFN-γ as a model, to test the IDO1 inhibitory activity of the compounds at the cellular level.
HeLa cells are human cervical cancer cell lines, which can up-regulate the expression of endogenous IDO1 under the induction of human IFN-γ. By adding the substrate L-tryptophan to cell culture medium, the enzymatic catalysis product kynurenine in cell supernatant was detected. In this experiment, the cultured Hela cells were used and co-incubated with different concentrations of test compounds under stimulation of human IFN-γ for a specified period of time, and the color reaction method of enzyme product and p-dimethylaminobenzaldehyde was used to detect the effect on IDO enzyme activity of cells treated by the test compounds.
(1) Hela cells were inoculated into 96-well culture plates at an appropriate concentration (about 20,000 cells/well). […] The cells were continuously cultured for 48 hours before detection.
(2) 200 μL of the supernatant in the culture well was pipetted out, added with 40 μL of the pre-prepared 30% (w/v) trichloroacetic acid solution, and reacted at 65° C. for 20 minutes, and then centrifuged at 12000 rpm for 15 minutes.
(3) 100 μL of the supernatant after centrifugation was pipetted out, added into a 96-well flat bottom plate, then added with an equal volume of 2% p-dimethylaminobenzaldehyde in glacial acetic acid and mixed well, and stood at room temperature for 10 minutes.
(4) microplate reader (ELX800NB) was used to detect the absorbance value of each well, and the detection wavelength was 492 nm.
In addition, after the cell enzyme activity inhibition rates of test compounds with different concentration gradients were separately calculated, their cell enzyme activity half inhibition concentrations (EC50) were calculated by using EC50 calculator.
According to the above-mentioned experimental method, the compounds of the present application were subjected to IDO1 enzymatic evaluation at cytological level (the concentration of each test compound was all 100 nM).
According to the above-mentioned experimental method, the compound of the present application was subjected to hIDO1-cell base EC50 detection.

T1 sequence (P14902 whole entry): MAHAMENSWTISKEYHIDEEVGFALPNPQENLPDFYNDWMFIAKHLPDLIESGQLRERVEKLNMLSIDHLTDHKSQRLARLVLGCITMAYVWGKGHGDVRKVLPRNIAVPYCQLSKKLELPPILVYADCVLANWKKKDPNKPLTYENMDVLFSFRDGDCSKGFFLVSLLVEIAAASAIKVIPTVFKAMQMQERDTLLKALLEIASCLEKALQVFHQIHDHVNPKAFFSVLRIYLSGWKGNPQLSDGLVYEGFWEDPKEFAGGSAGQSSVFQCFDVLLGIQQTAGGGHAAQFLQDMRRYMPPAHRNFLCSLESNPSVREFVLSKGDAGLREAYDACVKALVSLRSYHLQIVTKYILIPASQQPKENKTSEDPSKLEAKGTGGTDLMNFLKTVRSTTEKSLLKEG

As for `COc1cccc(NC(=O)N2CC3(CC(Oc4ccnc5ccc(F)cc45)C3)C2)c1` [Example 4, N-(3-methoxyphenyl)-6-((6-fluoroquinolin-4-yl)oxy)-2-aza-spiro[3.3]heptan-2-carboxamide], the inhibition at 0.1 µM is 49%.

`O=C(/C=C/c1ccc(Cl)cc1)N1CC2(CC(Oc3ccnc4ccc(F)cc34)C2)C1` [Example 7, (E)-3-(4-chlorophenyl)-1-(6-((6-fluoroquinolin-4-yl)oxy)-2-aza-spiro[3.3]heptan-2-yl)prop-2-en-1-one]: the inhibition at 0.1 µM turned out to be 31%.

Turning to `O=C(c1ccc(Cl)cc1)N1CC2(CC(Oc3ccnc4ccc(F)cc34)C2)C1` [Example 6, (4-chlorophenyl)(6-((6-fluoroquinolin-4-yl)oxy)-2-aza-spiro[3.3]heptan-2-yl) methanone], the inhibition at 0.1 µM stood at 87% and the EC50 worked out at 36 nM.

In the case of `COc1ccc(NC(=O)C(C)N2CC3C(C2)C3Nc2ccnc3ccc(F)cc23)cc1` (stereo not drawn) [Example 73, 2-(6-((6-fluoroquinolin-4-yl)amino)-3-aza-bicyclo[3.1.0]hexan-3-yl)-N-(4-methoxyphenyl)propionamide], the inhibition at 0.1 µM worked out at 83%.

`O=C(Nc1ccc(Cl)cc1)N1CC2(CC(Oc3nccc4ccccc34)C2)C1` [Example 36, N-(4-chlorophenyl)-6-(isoquinolin-1-yloxy)-2-aza-spiro[3.3]heptan-2-carboxamide]: the inhibition at 0.1 µM is 26%.

As to `COc1cccc(NC(=O)C(C)N2CCC3CN(c4ccnc5ccc(F)cc45)CC3C2)c1` (stereo not drawn) [Example 65, 2-(2-(6-fluoroquinolin-4-yl)octahydro-5H-pyrrolo[3,4-c]pyridin-5-yl)-N-(3-methoxyphenyl)propionamide], the inhibition at 0.1 µM worked out at 59%.

As for `O=C(Nc1ccc(Cl)cc1)N1CC2(CC(Oc3ccnc4ccccc34)C2)C1` [Example 23, N-(4-chlorophenyl)-6-(quinolin-4-yloxy)-2-aza-spiro[3.3]heptan-2-carboxamide], the inhibition at 0.1 µM amounted to 74% and the EC50 worked out at 26 nM.

For the compound `O=C(Nc1ccc(F)cc1)N1CC2C(C1)C2Oc1ccnc2ccc(F)cc12` (stereo not drawn) [Example 30, N-(4-fluorophenyl)-6-((6-fluoroquinolin-4-yl)oxy)-3-aza-cyclo[3.1.0]hexan-3-carboxamide], the inhibition at 0.1 µM came to 11%.

For `CC(C(=O)Nc1ccc(Cl)cc1)N1CC2C(COc3ccnc4ccc(F)cc34)C2C1` (stereo not drawn) [Example 46, N-(4-chlorophenyl)-2-(6-(((6-fluoroquinolin-4-yl)oxo)methyl)-3-aza-bicyclo[3.1.0]hexan-3-yl)propionamide], the inhibition at 0.1 µM was determined as 49%.

Take `O=C(Nc1ccc(Cl)cc1)C(CO)N1CC2C(C1)C2Nc1ccnc2ccc(F)cc12` (stereo not drawn) [Example 78, N-(4-chlorophenyl)-2-(6-((6-fluoroquinolin-4-yl)amino)-3-aza-bicyclo[3.1.0]hexan-3-yl)-3-hydroxypropionamide]: the inhibition at 0.1 µM was 42%.

As for `O=C(Nc1ccc(Cl)cc1)N1CC2(CCC(Nc3ccnc4ccc(F)cc34)C2)C1` (stereo not drawn) [Example 19], the inhibition at 0.1 µM came to 61%.

As for `O=C(Nc1ccc(Cl)cc1)N1CC2C(C1)C2Oc1ccnc2ccc(F)cc12` (stereo not drawn) [Example 31, N-(4-chlorophenyl)-6-((6-fluoroquinolin-4-yl)oxy)-3-aza-cyclo[3.1.0]hexan-3-carboxamide], the inhibition at 0.1 µM is 46%.

In the case of `CC(C(=O)Nc1ccccc1)N1CC2C(C1)C2Nc1ccnc2ccc(F)cc12` (stereo not drawn) [Example 74, 2-(6-((6-fluoroquinolin-4-yl)amino)-3-aza-bicyclo[3.1.0]hexan-3-yl)-N-phenyl-propionamide], the inhibition at 0.1 µM was found to be 85%.

As for `O=C(NCc1ccc(Cl)cc1)N1CC2(CC(Oc3ccnc4ccc(F)cc34)C2)C1` [Example 15, N-(4-chlorobenzyl)-6-((6-fluoroquinolin-4-yl)oxy)-2-aza-spiro[3.3]heptan-2-carboxamide], the inhibition at 0.1 µM is 18%.

Consider `CC(C(=O)Nc1cccnc1)N1CC2(CC(Oc3ccnc4ccc(F)cc34)C2)C1` (stereo not drawn) [Example 41, 2-(6-((6-fluoroquinolin-4-yl)oxo)-2-aza-spiro[3.3]heptan-2-yl)-N-(pyridin-3-yl)propionamide], for which the inhibition at 0.1 µM stood at 23%.

Turning to `O=C(CNc1ccccc1)N1CC2(CC(Oc3ccnc4ccc(F)cc34)C2)C1` [Example 11, 1-(6-((6-fluoroquinolin-4-yl)oxy)-2-aza-cyclo[3.3]heptan-2-yl)-2-(anilino)ethyl-1-one], the inhibition at 0.1 µM amounted to 25%.

`O=C(Nc1ccc2c(c1)CCO2)N1CC2(CC(Oc3ccnc4ccc(F)cc34)C2)C1` [Example 32, N-(2,3-dihydrobenzofuran-5-yl)-6-((6-fluoroquinolin-4-yl)oxy)-2-aza-spiro[3.3]heptan-2-carboxamide]: the inhibition at 0.1 µM was 44%.

As for `CC(C(=O)Nc1ccc(Cl)cc1)N1CC2(CC(Oc3ccnc4ccc(F)cc34)C2)C1` (stereo not drawn) [Example 39, N-(4-chlorophenyl)-2-(6-((6-fluoroquinolin-4-yl)oxo)-2-aza-spiro[3.3]heptan-2-yl)propionamide], the inhibition at 0.1 µM is 91% and the EC50 was 20 nM.

As for `CC(C(=O)Nc1ccccc1)N1CCC2CN(c3ccnc4ccc(F)cc34)CC2C1` (stereo not drawn) [Example 67, 2-(2-(6-fluoroquinolin-4-yl)octahydro-5H-pyrrolo[3,4-c]pyridin-5-yl)-N-phenyl-propionamide], the inhibition at 0.1 µM stood at 94%.

Turning to `CC(C(=O)Nc1ccc(Cl)cc1)N1CC2(CC(N(C)c3ccnc4ccc(F)cc34)C2)C1` (stereo not drawn) [Example 59, N-(4-chloro)-2-(6-((6-fluoroquinolin-4-yl)(methyl)amino)-2-aza-spiro[3.3]heptan-2-yl)propionamide], the inhibition at 0.1 µM amounted to 85% and the EC50 worked out at 25 nM.

`COC/C=C/c1ccc(NC(=O)N2CC3(CC(Oc4ccnc5ccc(F)cc45)C3)C2)cc1` [Example 10]: the inhibition at 0.1 µM amounted to 90%.

With `COc1ccc(NC(=O)C(C)N2CCC3CN(c4ccnc5ccc(F)cc45)CC3C2)cc1` (stereo not drawn) [Example 66, 2-(2-(6-fluoroquinolin-4-yl)octahydro-5H-pyrrolo[3,4-c]pyridin-5-yl)-N-(4-methoxyphenyl)propionamide], the inhibition at 0.1 µM was determined as 90%.

For the compound `CC(C(=O)NC1CCCCC1)N1CC2(CC(Oc3ccnc4ccc(F)cc34)C2)C1` (stereo not drawn) [Example 40, N-cyclohexyl-2-(6-((6-fluoroquinolin-4-yl)oxo)-2-aza-spiro[3.3]heptan-2-yl)propionamide], the inhibition at 0.1 µM turned out to be 19%.

Consider `CC(C(=O)Nc1ccc(Cl)cc1)N1CC2CC(Nc3ccnc4ccc(F)cc34)CC2C1` (stereo not drawn) [Example 83, N-(4-chlorophenyl)-2-(5-((6-fluoroquinolin-4-yl)amino)hexahydro-cyclopenta[c]pyrrol-2(1H)-yl)propionamide], for which the inhibition at 0.1 µM amounted to 45%.

Turning to `O=C(Nc1ccc(Cl)cc1)N1CC2(CC(Oc3cnc4ccccc4c3)C2)C1` [Example 26, N-(4-chlorophenyl)-6-(quinolin-3-yloxy)-2-aza-spiro[3.3]heptan-2-carboxamide], the inhibition at 0.1 µM was determined as 15%.

As to `CC(C(=O)Nc1ccc(Cl)cc1)N1CC2(CC(Nc3ccnc4ccc(F)cc34)C2)C1` (stereo not drawn) [Example 54, N-(4-chlorophenyl)-2-(6-((6-fluoroquinolin-4-yl)amino)-2-aza-spiro[3.3]heptan-2-yl)propionamide], the inhibition at 0.1 µM stood at 69%.

Turning to `COc1ccc(NC(=O)N2CC3(CC(Oc4ccnc5ccc(F)cc45)C3)C2)cc1` [Example 5, N-(4-methoxyphenyl)-6-((6-fluoroquinolin-4-yl)oxy)-2-aza-spiro[3.3]heptan-2-carboxamide], the inhibition at 0.1 µM was determined as 63%.

For the compound `CC(C(=O)Nc1ccc(Cl)cc1)N1CC2C(C1)C2Oc1ccnc2ccc(F)cc12` (stereo not drawn) [Example 49, N-(4-chlorophenyl)-2-(6-((6-fluoroquinolin-4-yl)oxo)-3-aza-bicyclo[3.1.0]hexan-3-yl)propionamide], the inhibition at 0.1 µM is 99% and the EC50 is 5 nM.

In the case of `O=C(Nc1ccc(F)cc1)N1CC2(CC(Oc3ccnc4ccc(F)cc34)C2)C1` [Example 16, N-(4-fluorophenyl)-6-((6-fluoroquinolin-4-yl)oxy)-2-aza-spiro[3.3]heptan-2-carboxamide], the inhibition at 0.1 µM is 85% and the EC50 stood at 33 nM.

In the case of `O=C(Nc1ccc(Cl)cc1)N1CC2(CC(Oc3ncnc4ccccc34)C2)C1` [Example 29, N-(4-chlorophenyl)-6-(quinazolin-4-yloxy)-2-aza-spiro[3.3]heptan-2-carboxamide], the inhibition at 0.1 µM was 10%.
